Values belong to the substance of their own block, whether it stands above or below them.
System: IgE antibodies from patients
Experiment: Wheat epitope mapping (2): overlapping 10-amino-acid peptide fragments shifted by one amino acid
Format: binding, human
Conditions: for Epitope sequence binding to IgE antibody, rank of the sequence (Key/Preferably/More preferably) / Epitope sequence binding to IgE antibody, rank of the sequence (Key/Preferably/More preferably/Further preferably): sequence without X; for Epitope sequence binding to IgE antibody, rank of the sequence (Key/Preferably/More preferably/Further preferably): serum of patient P50 (child, general immediate type allergy to wheat); for Epitope sequence binding to IgE antibody, rank of the sequence: partial sequence
Procedure, shortened: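 Residual binding was banded as <30% none, 30–<50% poor, 50–<70% somewhat poor and ≥70% retained, relative to the parent overlapping sequence set to 100%. Values were chemiluminescent IgE signals from patient sera after subtracting secondary-antibody-only controls. The peptides were spot-synthesised 10-mers shifted by one amino acid.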

[1] = serum of patient P52 (child, general immediate type allergy to wheat)
[2] = serum of patient G7 (adult, general immediate type allergy to wheat)
[3] = serum of patient P51 (child, general immediate type allergy to wheat)
[4] = serum of patient P53 (child, general immediate type allergy to wheat)

Epitope sequence binding to IgE antibody, rank of the sequence (Key/Preferably/More preferably) (serum of patient P27 (WDEIA)): Preferably
Substance: 2376 (AYVTEIV; REGION 1..7: note = epitope) [compound 2376]

Epitope sequence binding to IgE antibody, rank of the sequence (Key/Preferably/More preferably) (serum of patient P27 (WDEIA)): Key
Substance: 2377 (YVTEIV; REGION 1..6: note = epitope) [compound 2377]

Epitope sequence binding to IgE antibody, rank of the sequence (Key/Preferably/More preferably) (serum of patient P28 (WDEIA)): Key
Substance: 2379 (HDIDRCAY; REGION 1..8: note = epitope) [compound 2379]

Epitope sequence binding to IgE antibody, rank of the sequence (Key/Preferably/More preferably) (serum of patient P28 (WDEIA)): Key
Substance: 2380 (DRCAYVTEIV; REGION 1..10: note = epitope) [compound 2380]

Epitope sequence binding to IgE antibody, rank of the sequence (Key/Preferably/More preferably) (serum of patient P29 (WDEIA)): Key
Substance: 2383 (HDIDRCAY; REGION 1..8: note = epitope) [compound 2383]

Epitope sequence binding to IgE antibody, rank of the sequence (Key/Preferably/More preferably) (serum of patient P29 (WDEIA)): Preferably
Substance: 2384 (YVTEIVL; REGION 1..7: note = epitope) [compound 2384]

Epitope sequence binding to IgE antibody, rank of the sequence (Key/Preferably/More preferably) (serum of patient P29 (WDEIA)): Key
Substance: 2385 (VTEI; REGION 1..4: note = epitope) [compound 2385]

Epitope sequence binding to IgE antibody, rank of the sequence (Key/Preferably/More preferably) (serum of patient P32 (WDEIA)): Key
Substance: 2388 (RCAYVTEIV; REGION 1..9: note = epitope) [compound 2388]

Epitope sequence binding to IgE antibody, rank of the sequence (Key/Preferably/More preferably) (serum of patient P33 (WDEIA)): Key
Substance: 2390 (VTEIV; REGION 1..5: note = epitope) [compound 2390]

Epitope sequence binding to IgE antibody, rank of the sequence (Key/Preferably/More preferably) (serum of patient P34 (WDEIA)): Preferably
Substance: 2393 (PHDIDRCAYV; REGION 1..10: note = epitope) [compound 2393]

Epitope sequence binding to IgE antibody, rank of the sequence (Key/Preferably/More preferably) (serum of patient P34 (WDEIA)): Key
Substance: 2394 (HDIDRCAYV; REGION 1..9: note = epitope) [compound 2394]

Epitope sequence binding to IgE antibody, rank of the sequence (Key/Preferably/More preferably) (serum of patient P34 (WDEIA)): Key
Substance: 2395 (TEIV; REGION 1..4: note = epitope) [compound 2395]

Epitope sequence binding to IgE antibody, rank of the sequence (Key/Preferably/More preferably) (serum of patient P35 (WDEIA)): Preferably
Substance: 2398 (TEIVL; REGION 1..5: note = epitope) [compound 2398]

Epitope sequence binding to IgE antibody, rank of the sequence (Key/Preferably/More preferably) (serum of patient P35 (WDEIA)): Key
Substance: 2399 (TEIV; REGION 1..4: note = epitope) [compound 2399]

Epitope sequence binding to IgE antibody, rank of the sequence (Key/Preferably/More preferably) (serum of patient P36 (WDEIA)): Preferably
Substance: 2401 (VTEIV; REGION 1..5: note = epitope) [compound 2401]

Epitope sequence binding to IgE antibody, rank of the sequence (Key/Preferably/More preferably) (serum of patient P36 (WDEIA)): Key
Substance: 2402 (TEIV; REGION 1..4: note = epitope) [compound 2402]

Epitope sequence binding to IgE antibody, rank of the sequence (Key/Preferably/More preferably/Further preferably): More preferably
Substance: 2405 (RCAYVTEIVL; REGION 1..10: note = epitope) [compound 2405]

Epitope sequence binding to IgE antibody, rank of the sequence (Key/Preferably/More preferably/Further preferably): Preferably
Substance: 2406 (TEIVL; REGION 1..5: note = epitope) [compound 2406]

Epitope sequence binding to IgE antibody, rank of the sequence (Key/Preferably/More preferably) [1]: Preferably
Substance: 2411 (TEIVL; REGION 1..5: note = epitope) [compound 2411]

Epitope sequence binding to IgE antibody, rank of the sequence (Key/Preferably/More preferably) [2]: Preferably
Substance: 2415 (IDRCAYV; REGION 1..7: note = epitope) [compound 2415]

Epitope sequence binding to IgE antibody, rank of the sequence (Key/Preferably/More preferably) [2]: Preferably
Substance: 2417 (RCAYVTEIVL; REGION 1..10: note = epitope) [compound 2417]

Epitope sequence binding to IgE antibody, rank of the sequence (Key/Preferably/More preferably) [2]: Key
Substance: 2418 (TEIVL; REGION 1..5: note = epitope) [compound 2418]

Epitope sequence binding to IgE antibody, rank of the sequence (Key/Preferably/More preferably) (serum of patient P12 (WDEIA)): More preferably
Substance: 2423 (AWSGKTEN; REGION 1..8: note = epitope) [compound 2423]

Epitope sequence binding to IgE antibody, rank of the sequence (Key/Preferably/More preferably) (serum of patient P12 (WDEIA)): Preferably
Substance: 2424 (AWSGK; REGION 1..5: note = epitope) [compound 2424]

Epitope sequence binding to IgE antibody, rank of the sequence (Key/Preferably/More preferably) (serum of patient P26 (WDEIA)): More preferably
Substance: 2432 (QSTLKAWSGK; REGION 1..10: note = epitope) [compound 2432]

Epitope sequence binding to IgE antibody, rank of the sequence (Key/Preferably/More preferably) (serum of patient P26 (WDEIA)): Preferably
Substance: 2435 (KAWSGKTEN; REGION 1..9: note = epitope) [compound 2435]

Epitope sequence binding to IgE antibody, rank of the sequence (Key/Preferably/More preferably) (serum of patient P26 (WDEIA)): Key
Substance: 2436 (WSGKTE; REGION 1..6: note = epitope) [compound 2436]

Epitope sequence binding to IgE antibody, rank of the sequence (Key/Preferably/More preferably) (serum of patient P28 (WDEIA)): Key
Substance: 2441 (KAWSGK; REGION 1..6: note = epitope) [compound 2441]

Epitope sequence binding to IgE antibody, rank of the sequence (Key/Preferably/More preferably) (serum of patient P35 (WDEIA)): Preferably
Substance: 2453 (LKAWSGK; REGION 1..7: note = epitope) [compound 2453]

Epitope sequence binding to IgE antibody, rank of the sequence (Key/Preferably/More preferably/Further preferably): Further preferably
Substance: 2460 (LKAWSGK; REGION 1..7: note = epitope) [compound 2460]

Epitope sequence binding to IgE antibody, rank of the sequence (Key/Preferably/More preferably/Further preferably): More preferably
Substance: 2461 (LKAWSG; REGION 1..6: note = epitope) [compound 2461]

Epitope sequence binding to IgE antibody, rank of the sequence (Key/Preferably/More preferably/Further preferably): More preferably
Substance: 2464 (WSGKTENEE; REGION 1..9: note = epitope) [compound 2464]

Epitope sequence binding to IgE antibody, rank of the sequence (Key/Preferably/More preferably) [1]: Preferably
Substance: 2470 (LKAWSGK; REGION 1..7: note = epitope) [compound 2470]

Epitope sequence binding to IgE antibody, rank of the sequence (Key/Preferably/More preferably) [1]: More preferably
Substance: 2472 (SGKTENEE; REGION 1..8: note = epitope) [compound 2472]

Epitope sequence binding to IgE antibody, rank of the sequence (Key/Preferably/More preferably) (serum of patient G2 (adult, general immediate type allergy to wheat)): Key
Substance: 2480 (KAWSG; REGION 1..5: note = epitope) [compound 2480]

Epitope sequence binding to IgE antibody, rank of the sequence (Key/Preferably/More preferably) [2]: More preferably
Substance: 2487 (KAWSGK; REGION 1..6: note = epitope) [compound 2487]

Epitope sequence binding to IgE antibody, rank of the sequence (serum of patient P2 (WDEIA)): Preferably
Substance: 2493 (SSQVSF; REGION 1..6: note = epitope) [compound 2493]

Epitope sequence binding to IgE antibody, rank of the sequence (serum of patient P2 (WDEIA)): Key
Substance: 2494 (QVSF; REGION 1..4: note = epitope) [compound 2494]

Epitope sequence binding to IgE antibody, rank of the sequence (serum of patient P2 (WDEIA)): Key
Substance: 2495 (FQPSQLNPQ; REGION 1..9: note = epitope) [compound 2495]

Epitope sequence binding to IgE antibody, rank of the sequence (serum of patient P7 (WDEIA)): Key
Substance: 2497 (QVSF; REGION 1..4: note = epitope) [compound 2497]

Epitope sequence binding to IgE antibody, rank of the sequence (serum of patient P8 (WDEIA)): Preferably
Substance: 2499 (SQVSF; REGION 1..5: note = epitope) [compound 2499]

Epitope sequence binding to IgE antibody, rank of the sequence (serum of patient P8 (WDEIA)): Key
Substance: 2500 (QVSF; REGION 1..4: note = epitope) [compound 2500]

Epitope sequence binding to IgE antibody, rank of the sequence (serum of patient P8 (WDEIA)): Key
Substance: 2501 (SFQPSQLNPQ; REGION 1..10: note = epitope) [compound 2501]

Epitope sequence binding to IgE antibody, rank of the sequence (serum of patient P15 (WDEIA)): Preferably
Substance: 2502 (SSQVSFQPSQ; REGION 1..10: note = epitope) [compound 2502]

Epitope sequence binding to IgE antibody, rank of the sequence (serum of patient P15 (WDEIA)): Key
Substance: 2503 (SSQVSF; REGION 1..6: note = epitope) [compound 2503]

Epitope sequence binding to IgE antibody, rank of the sequence (serum of patient P16 (WDEIA)): Preferably
Substance: 2504 (SSQVSF; REGION 1..6: note = epitope) [compound 2504]

Epitope sequence binding to IgE antibody, rank of the sequence (serum of patient P16 (WDEIA)): Key
Substance: 2505 (SQVSF; REGION 1..5: note = epitope) [compound 2505]

Epitope sequence binding to IgE antibody, rank of the sequence (serum of patient P20 (WDEIA)): Preferably
Substance: 2506 (SSQVSFQPSQ; REGION 1..10: note = epitope) [compound 2506]

Epitope sequence binding to IgE antibody, rank of the sequence (serum of patient P20 (WDEIA)): Key
Substance: 2507 (SQVSF; REGION 1..5: note = epitope) [compound 2507]

Epitope sequence binding to IgE antibody, rank of the sequence (serum of patient P22 (WDEIA)): Key
Substance: 2508 (SQVSF; REGION 1..5: note = epitope) [compound 2508]

Epitope sequence binding to IgE antibody, rank of the sequence (serum of patient P29 (WDEIA)): Key
Substance: 2509 (QVSF; REGION 1..4: note = epitope) [compound 2509]

Epitope sequence binding to IgE antibody, rank of the sequence (serum of patient P29 (WDEIA)): Key
Substance: 2510 (PSQLNPQ; REGION 1..7: note = epitope) [compound 2510]

Epitope sequence binding to IgE antibody, rank of the sequence (serum of patient P36 (WDEIA)): Key
Substance: 2512 (SQVSF; REGION 1..5: note = epitope) [compound 2512]

Epitope sequence binding to IgE antibody, rank of the sequence [3]: Preferably
Substance: 2514 (SFQPSQLNPQ; REGION 1..10: note = epitope) [compound 2514]

Epitope sequence binding to IgE antibody, rank of the sequence [3]: Key
Substance: 2515 (SFQPSQ; REGION 1..6: note = epitope) [compound 2515]

Epitope sequence binding to IgE antibody, rank of the sequence [4]: Key
Substance: 2516 (SSQVSF; REGION 1..6: note = epitope) [compound 2516]

Epitope sequence binding to IgE antibody, rank of the sequence [4]: Preferably
Substance: 2518 (PSQLNPQ; REGION 1..7: note = epitope) [compound 2518]

Epitope sequence binding to IgE antibody, rank of the sequence [4]: Key
Substance: 2519 (PSQLN; REGION 1..5: note = epitope) [compound 2519]

Epitope sequence binding to IgE antibody, rank of the sequence (serum of patient P56 (child, general immediate type allergy to wheat)): Further preferably
Substance: 2523 (PSQLNPQA; REGION 1..8: note = epitope) [compound 2523]
